Results on 3 compounds are retold here after patent US20060205677A1 (XenoPort, Inc., priority 2005, published 2006).

One data set deals with H69AR cells. In words: In vitro cytotoxicity (Alamar blue growth inhibition), H69AR. It counts as cell-based, human. The following applies: 48 h. The protocol: (§1) The effect of experimental compounds on cancer cell growth and viability was measured in a panel of human cancer cells grown in vitro. All cancer cell lines were obtained from the American […]. Cells were maintained in the following media: TUR, H69AR, Calu-6, ME180, and PC3 cells were grown in RPMI medium containing 4.5 g/L glucose, 10% FBS, 4 mM L-glutamine, and 1 mM sodium pyruvate); and HT29 cells were grown in DMEM with 4.5 g/L glucose, 10% FBS, and 6 mM L-glutamine. All cells were grown at 37° C. in 5% CO2 and passaged bi-weekly.
(§2) For cytoxicity studies, cells were seeded into 96-well clear-bottom microtiter plates at the following densities: TUR (7,500 cells/well), HT29 (5,000 cells/well), H69AR (10,000 cells/well), Calu-6 (15,000 cells/well), and ME180 (2,500 cells/well). Cells were maintained at 37° C. with 5% CO2 for 24 hours prior to addition of various experimental compounds. Each condition was measured in triplicate. For compounds dissolved in DMSO, the final DMSO concentration in each well and in the non-drug treated control cells was constant and below 1% in all studies. The number of viable cells was determined after 24, 48, and 72 hours using Alamar blue fluorescence. Briefly, Alamar blue (10 mM) was added to each well for 4 hours, and the number of viable cells estimated by measuring the fluorescence of reduced Alamar blue (530 nm excitation, 590 nm emission). To correct for background fluorescence, cells were treated with 100% DMSO to eliminate all viable cells. The effect of drug on cell growth was determined by calculating the fraction of live cells treated with drug compared to untreated cells: (F1drug treated−F1DMSO killed)/(F1untreated−F1DMSO killed).
(Resazurin is reduced to fluorescent resorufin, in cell work by metabolically active cells.)

The test system of data set [1] is HT29 cells. Briefly: In vitro cytotoxicity (Alamar blue growth inhibition), HT29. It counts as cell-based, human. The following applies: HT29, 48 h. The protocol:
as §1, §2

Data set [2] in a line: Determination of maximum tolerated dose (MTD). The class given is in vivo, nude mice. To be noted: for Therapeutic Index MTD/Min Eff: ratio of maximum tolerated dose to minimally effective dose. The protocol:
To determine the maximum tolerated doses for compound (54) relative to clinically used platinum anticancer agents, nude mice were injected with increasing drug doses (0.5 mL, intraperitoneally) on days 0, 7, and 14. […] The therapeutic index of a given drug is defined as the ratio of the maximum tolerated dose to the minimally effective dose.

In another data set the test system is Calu-6 cells. Briefly: In vitro cytotoxicity (Alamar blue growth inhibition), Calu-6. The following applies: Calu-6, 48 h. It counts as cell-based, human. The protocol: as §1, §2
The subject of the next data set is ME180 cells. In words: In vitro cytotoxicity (Alamar blue growth inhibition), ME180. The class given is cell-based, human. To be noted: ME180, 48 h. Here is the method: as §1, §2
Another data set has as its system TUR cells. In words: In vitro cytotoxicity (Alamar blue growth inhibition), TUR. The class given is cell-based, human. The following applies: 48 h. Here is the method: as §1, §2
The next data set relates to PC3 (Prostate) xenograft. Briefly: In vivo tumor growth inhibition, mouse xenograft, PC3. To be noted: 80 mg/kg (2/week), IP. Details: species or system nude athymic CD-1 mice. The protocol:
(§3) Tumor xenograft studies were performed using nude athymic CD-1 mice (Charles River Laboratories). Human cancer cells (5×10^6 PC3, 5×10^6 HT29, 10^7 Calu-6, and 5×10^6 ME180) were implanted in the hind flank of nude mice. Tumor growth was measured using calipers and tumor volume calculated using the formula: (width^2×(length/2)). Tumor volume was measured 3 days per week. Animal weight was measured 3 days per week to assess compound toxicity.
(§4) Compounds were tested for in vivo tumor growth inhibition as follows. Animals bearing tumors 100-200 mg were sorted into groups (5-8 animals) with similar average tumor mass per group. Drug doses were administered by intraperitoneal (IP) injection (0.5 mL). Test compounds were dissolved in phosphate buffered saline (PBS) and concentration adjusted for animal weight. Actual drug concentrations in formulated doses were verified by quantitative nitrogen detection. Animals were dosed every 7 days for 21 days in most studies. In several studies, animals were dosed twice weekly (days 0, 4, 7, 10, 14, etc.). Tumor volume and animal weight were measured on days 0, 2, 4, 7, 9, 11, 14, 16, 18, 21, 23, 25, and 28. […] Tumor volume at the end of the study was calculated as a percentage of the tumor volume on day 0. […]

Data set [3] relates to several different tumor types. In words: In vivo tumor growth inhibition, overall statement. On the set-up: species or system nude athymic CD-1 mice. To be noted: mouse xenografts, compared with cisplatin, oxaliplatin, carboplatin. Here is the method:
as §3, §4

The subject of the next data set is Calu-6 (Lung) xenograft. In words: In vivo tumor growth inhibition, mouse xenograft, Calu-6. On the set-up: species or system nude athymic CD-1 mice. To be noted: IP. The protocol: as §3
(§5) Compounds were tested for in vivo tumor growth inhibition as follows. Animals bearing tumors 100-200 mg were sorted into groups (5-8 animals) with similar average tumor mass per group. Drug doses were administered by intraperitoneal (IP) injection (0.5 mL). Test compounds were dissolved in phosphate buffered saline (PBS) and concentration adjusted for animal weight. Actual drug concentrations in formulated doses were verified by quantitative nitrogen detection. Animals were dosed every 7 days for 21 days in most studies. In several studies, animals were dosed twice weekly (days 0, 4, 7, 10, 14, etc.). Tumor volume and animal weight were measured on days 0, 2, 4, 7, 9, 11, 14, 16, 18, 21, 23, 25, and 28. At the end of the study, animal blood was removed for analysis of liver and kidney function (BUN, creatine, AST and ALT; analytical measurements performed by Quality Clinical Labs). Tumor volume at the end of the study was calculated as a percentage of the tumor volume on day 0. The percent tumor growth inhibition was obtained from the ratio of the percentage tumor volume increase in drug treated animals to the percentage tumor volume increase in saline treated animals.

A further data set deals with PC3 cells. In words: In vitro cytotoxicity (Alamar blue growth inhibition), PC3. The class given is cell-based, human. The following applies: PC3, 48 h. The protocol:
as §1, §2

In data set [4] the test system is ME180 (Cervical) xenograft. Briefly: In vivo tumor growth inhibition, mouse xenograft, ME180. On the set-up: species or system nude athymic CD-1 mice. The following applies: IP. Here is the method:
as §3, §5

Data set [5] has as its system HT29 cells. Briefly: Effect of sugar transport inhibitor (phloridzen) on in vitro cytotoxicity. It counts as cell-based, human. The following applies: for GI50: 48 hours. The protocol: as §1, §2
For the next data set, the system named is HT29 (Colon) xenograft. Briefly: In vivo tumor growth inhibition, mouse xenograft, HT29. On the set-up: species or system nude athymic CD-1 mice. The following applies: IP. Here is the method: as §3, §5

The term GI50 denotes the concentration giving 50% growth inhibition. In the case of `O=C(CCCC1C(=O)[O][Pt]2([NH]C3CCCCC3[NH]2)[O]C1=O)NCC1OC(O)C(O)C(O)C1O` [(54), [1R,2R-Cyclohexanediamine-N,N′][{3-(α,β-D-Galactopyranos-6-ylamido)propyl}propanedioato(2-)-O,O′]Platinum (II)], the GI50 came to 77 µM in the data set on H69AR cells; 238 µM in the data set on HT29 cells [1]; 185 µM with Calu-6 cells; 15 µM with ME180 cells; 9 µM with TUR cells; 85 µM in the data set on PC3 cells. The GI50 in the data set with HT29 cells [5] (HT29, 0 mM phloridzen, read-out: GI50 of Uptake in HT29 Cells, 0 mM Phoridzen) was 385 µM; in the data set on HT29 cells [5] (HT29, 0.2 mM phloridzen, read-out: GI50 of Uptake in HT29 Cells, 0.2 mM Phoridzen), 574 µM; in the data set with HT29 cells [5] (HT29, 0.5 mM phloridzen, read-out: GI50 of Uptake in HT29 Cells, 0.5 mM Phoridzen), 759 µM; in the data set with HT29 cells [5] (HT29, 1.0 mM phloridzen, read-out: GI50 of Uptake in HT29 Cells, 1.0 mM Phoridzen), over 1000 µM. Also, the “Therapeutic index relative to cisplatin, carboplatin, oxaliplatin, in words” value in data set [2] (in words) is listed as “dramatically improved therapeutic index”. Moreover, the “Therapeutic Index MTD/Min Eff” value in [2] was 12.7. Also, in the data set with PC3 (Prostate) xenograft, the “Percent Tumor Growth Inhibition PC3 (Prostate)” value came out at 82%. Besides, the “Inhibition of tumor growth in vivo, in words” value in data set [3] is “effective in inhibiting growth of several different tumor types in vivo”. Also, the “Percent Tumor Growth Inhibition Calu-6 (Lung)” value stood at 73% in the data set with Calu-6 (Lung) xenograft (50 mg/kg (2/week)), 42% with Calu-6 (Lung) xenograft (100 mg/kg) and 81% in the data set with Calu-6 (Lung) xenograft (500 mg/kg). Besides, the “Percent Tumor Growth Inhibition ME180 (Cervical)” value in data set [4] (50 mg/kg (2/week)) amounted to 24%; in data set [4] (75 mg/kg (2/week)) it was 24%; in data set [4] (100 mg/kg), 18%; in data set [4] (500 mg/kg) it was 68%. Further, the “Effect of increasing concentrations of phloridzen on cytotoxic effects” value in the data set with HT29 cells [5] (HT29, 48 hours, in words) is recorded as “block the cytotoxic effects”. The “Percent Tumor Growth Inhibition HT29 (Colon)” value in the data set with HT29 (Colon) xenograft (75 mg/kg (2/week)) came to 74%; with HT29 (Colon) xenograft (100 mg/kg), 63%.

For `O=C(CCCC1C(=O)[O][Pt]2([NH]C3CCCCC3[NH]2)[O]C1=O)NC1C(O)OC(CO)C(O)C1O` [(79), [1R,2R-Cyclohexanediamine-N,N′][{3-(α,β-D-Glucopyranos-2-yl-amido)propyl}propanedioato(2-)-O,O′]Platinum (II)], the GI50 in the data set with H69AR cells stood at 55 µM; in the data set with HT29 cells [1], 124 µM; with TUR cells it was 15 µM; with PC3 cells, 67 µM. Besides, in the data set on PC3 (Prostate) xenograft, the “Percent Tumor Growth Inhibition PC3 (Prostate)” value is recorded as 48%.

Turning to `N.N.O=C([O-])C1(C(=O)[O-])CCC1.[Pt+2]` [Carboplatin, reference compound], the GI50 in the data set on H69AR cells is 94 µM; in the data set on HT29 cells [1], 515 µM; in the data set with Calu-6 cells, 712 µM; in the data set on ME180 cells it was 64 µM; in the data set on TUR cells it was 123 µM; with PC3 cells, 290 µM. In addition, the “Therapeutic Index MTD/Min Eff” value in data set [2] is given as 2.3. In addition, the “Percent Tumor Growth Inhibition Calu-6 (Lung)” value with Calu-6 (Lung) xenograft (100 mg/kg) was 56%. Further, the “Percent Tumor Growth Inhibition ME180 (Cervical)” value in data set [4] (100 mg/kg) is 25%. The “Percent Tumor Growth Inhibition HT29 (Colon)” value in the data set on HT29 (Colon) xenograft (100 mg/kg) is recorded as 47%.
